The IC50 is the concentration that gives 50% inhibition. By inhibition is commonly meant the drop in the measured response relative to a control, in per cent.

The subject of experiment [1] is DLD-1 colorectal adenocarcinoma cells. The experiment in a line: MTT assay. In kind it is cell-based, human. Particulars: Homo sapiens, DLD-1, MTT, M ± SD, n = 3, read-out: IC50. The procedure: (§1) DLD-1, HaCaT, and Balb/c 3T3 cells were maintained in DMEM, while HT-29 cells were grown in McCoy’s 5A medium with 10% FBS and 1% penicillin/streptomycin. All cell lines were incubated at 37 °C in a humidified atmosphere with 5% CO2. After detaching the cells with trypsin, they were quantified using a Scepter 3.0 automated cell counter (Millipore, Burlington, MA, USA).
(§2) The metabolic activity of cells exposed to the tested derivatives, doxorubicin, and DMSO, was assessed using an MTT assay according to the manufacturer’s protocol (Sigma-Aldrich, St. Louis, MO, USA). Adherent cells were seeded into 96-well plates (5000–10,000 cells in 100 µL of growth medium per well) and allowed to adhere overnight before treatment. For lymphocytes, activation with phytohemagglutinin-L (1 µg/mL) was performed for 24 h, after which they were seeded in 96-well plates at a density of 100,000 cells/well in RPMI-1640 medium supplemented with 20% FBS. The test substances, including Les-6547, Les-6557, and doxorubicin, were added to 100 µL of culture medium to achieve final concentrations of 0 µM, 0.1 µM, 1 µM, 2.5 µM, 10 µM, and 100 µM for all compounds, and the cells were further incubated for 24, 48, or 72 h. DMSO-treated cells served as the control. Then, 20 µL of MTT solution (5 mg/mL) was added and incubated for 2–4 h to allow formazan crystal formation. The formazan crystals were then solubilized by adding DMSO. The absorbance of formazan was measured at 570 nm using a ThermoScientific Evolution 201 UV-VIS spectrophotometer (ThermoFisher Scientific, Waltham, MA, USA). The control condition with 0.5% DMSO was considered 100% viability. The IC50 values for the compounds were determined using GraphPad Prism 8 and 9 software (GraphPad Software, Boston, MA, USA).
(Tetrazolium assays rely on reduction of a dye to a coloured formazan, in cell work by metabolically active cells.)

The test system of experiment [2] is Balb/c 3T3 (mouse fibroblasts). Description: MTT assay. In kind it is cell-based. As to conditions: BALB/c3T3, Balb/c 3T3, MTT, 72 h, M ± SD, n = 3. As for the experimental part: as §1, §2
Experiment [3] concerns HaCaT (human keratinocytes). The experiment in a line: MTT assay. In kind it is cell-based. As to conditions: 72 h, M ± SD, n = 3. As for the experimental part:
as §1, §2

Experiment [4] deals with HT-29 colorectal adenocarcinoma cells. The experiment in a line: MTT assay. The class given is cell-based. As to conditions: Homo sapiens, HT-29, MTT, M ± SD, n = 3, read-out: IC50. The procedure: as §1, §2
Experiment [5] concerns DLD-1 colorectal adenocarcinoma cells. The experiment in a line: [^3H]-thymidine incorporation assay (DNA biosynthesis). In kind it is cell-based. Particulars: Homo sapiens; DLD-1, 24 h, M ± SD, n = 3. The procedure: (§3) The anti-proliferative potential of Les-6547 and Les-6557 was analyzed using a clonogenic assay and incorporation of radioactive [^3H]-thymidine into the DNA of colorectal adenocarcinoma HT-29 and DLD-1 cell lines after 24 h of incubation with various concentrations of the tested agents.
(§4) Next, we examined the effects of the tested compounds on the proliferative activity of human colorectal adenocarcinoma cells by assessing their ability to influence DNA biosynthesis using the thymidine incorporation assay (Figure 6, Table 8). Les-6547 decreased DNA biosynthesis in DLD-1 cells to 50% at a concentration of 2.19 ± 0.39 µM.
A general note: Uptake of a labelled nucleoside into DNA is a usual measure of proliferation.

The subject of experiment [6] is HT-29 colorectal adenocarcinoma cells. Described as above. In kind it is cell-based. As to conditions: Homo sapiens; HT-29, 24 h, M ± SD, n = 3. The procedure: as §3, §4
The subject of experiment [7] is DLD-1 colorectal adenocarcinoma cells. The experiment in a line: Colony forming (clonogenic) assay. The class given is cell-based, human. The procedure: (§5) For colony forming assay, HT-29 and DLD-1 cells were seeded in 12-well plates at a density of 500 cells in 2 mL of growth medium per well. After overnight incubation, the cells were exposed to the compounds Les-6547, Les-6557, and doxorubicin at concentrations ranging from 0.1 to 100 µM for 72 h. Following treatment, the medium was replaced with fresh medium without the compounds. After 14 days of culture, cells were rinsed with PBS and fixed with cold methanol for 10 min. Subsequently, the cells were stained with a 0.1% crystal violet solution for 10 min. After washing, the plates were allowed to dry at room temperature. Numbers of colonies were quantified using ImageJ software (version 1.5.4; National Institutes of Health, Bethesda, MD, USA). The effect of the compounds on the colony-forming capacity was calculated as a percentage of colonies relative to the untreated control group.

In experiment [8] the test system is HT-29 colorectal adenocarcinoma cells. Description: Colony forming (clonogenic) assay. Particulars: Homo sapiens. In kind it is cell-based, human. The procedure:
as §5

In experiment [9] the test system is Human blood lymphocytes. The experiment in a line: MTT assay. In kind it is cell-based. As to conditions: Lymphocyte, human blood lymphocytes, 72 h, M ± SD, n = 3. The procedure:
Lymphocytes from human peripheral blood were isolated with sodium heparin (10 U/mL) as an anticoagulant. Isolation was performed through a density gradient method with the Gradisol G, following a modified procedure. Peripheral blood was mixed with Gradisol G in equal proportions (1:1) and centrifuged at 400× g for 30 min at room temperature. The cells were collected, washed in phosphate-buffered saline (PBS), and treated with a hypotonic solution to remove residual erythrocytes. Lymphocytes were activated by phytohemagglutinin-L (1 µg/mL) and cultured in RPMI-1640 medium supplemented with 20% fetal bovine serum under controlled conditions of 95% air and 5% CO2 [27].
as §2

For the compound `COc1cccc2c1C(=O)c1c(O)c3c(c(O)c1C2=O)C[C@@](O)(C(=O)CO)C[C@@H]3O[C@H]1C[C@H](N)[C@H](O)[C@H](C)O1` [Doxorubicin, doxorubicin, reference compound], the IC50 in experiment [1] (24 h) amounted to 65.3 ± 6.08 µM; in experiment [1] (48 h), 2.01 ± 0.09 µM; in [1] (72 h) it was 0.76 ± 0.1 µM; in experiment [2], 0.56 ± 0.11 µM; in experiment [3], 0.9 ± 0.1 µM; in experiment [4] (24 h), 17 ± 0.88 µM. Also, the IC50 is 1.55 ± 0.14 µM in [4] (48 h); 2.11 ± 0.06 µM in [4] (72 h); 6.39 ± 0.02 µM in experiment [5]; 4.72 ± 0.8 µM in experiment [6]; 3.23 ± 0.05 µM in experiment [7] (Homo sapiens, DLD-1, 72 h treatment, 14 days of incubation, M ± SD, n = 3); approximately 0.5 µM in experiment [8] (HT-29, 72 h treatment, 14 days of incubation, n = 3). The compound further yielded an IC50 in experiment [9] of 0.71 ± 0.11 µM. The compound further had a colony growth in [7] (DLD-1, 10 µM) of 3.86%. The inhibition at 1 µM in experiment [8] (HT-29, 1 µM, read-out: inhibition of colony formation) turned out to be 100%.
